Assay [1] concerns the target T1, human RNase 4 (RN4_Human) (Homo sapiens, UniProt P34096).
T1 construct: made in house; host or cells: Escherichia coli
T1 sequence (P34096 29-147): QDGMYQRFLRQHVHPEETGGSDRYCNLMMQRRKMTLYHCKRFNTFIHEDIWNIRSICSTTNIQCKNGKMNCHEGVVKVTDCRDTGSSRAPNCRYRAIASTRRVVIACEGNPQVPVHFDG
Put plainly: NMR chemical shift titration, ligand binding to human RNase 4. The following applies: 298 K, 15 mM sodium acetate pH 5.0, ± standard deviation of the fit. From the text:
(§1) The pH was carefully monitored throughout the experiments and readjusted with Tris-base or acetic acid if necessary. Ligands 3′-UMP (Chemical Impex Intl Inc., Wood Dale, IL, USA) and 5′-AMP (BioBasic Inc., Markham, ON Canada) were purchased commercially and dissolved in the same buffer as the protein. ^1H-^15N sensitivity-enhanced HSQC experiments were acquired at 800 MHz (18.8 T) using spectral widths (points) of 2025 (160) and 8000 Hz (1024) in the ω1 and ω2 dimensions, respectively. Titration experiments were performed for each ligand with enzyme:ligand molar ratios up to 1:12 (1:12), 1:18 (1:18), 1:24 (1:18), 1:30 (1:18) and 1:18 (1:30) for the 3′-UMP- (5′-AMP-) bound states of bovine RNase A and human RNases 2, 3, 4, and 5, respectively.
(§2) The equilibrium dissociation constant (Kd) was calculated by plotting weighted average chemical shift differences (Δδobs) as a function of ligand concentration and fitting the data using the following equation: […]
(§3) The Kd was estimated by simultaneously fitting the data of all residues affected by ligand binding (Williamson, [2013]). We note that Δδmax is a fitted parameter and not an experimentally measured one. […] Chemical shift perturbations (Δδobs) were calculated as the difference in the weighted average chemical shift of the ligand-bound (5′-AMP and 3′-UMP) and apo states, as shown below. […]

The target of assay [2] is T2, human RNase 5 (RN5_Human) (Homo sapiens, UniProt P03950).
T2 construct: made in house; host or cells: Escherichia coli
Nature of the assay: NMR chemical shift titration, ligand binding to human RNase 5. The following applies: 298 K, 15 mM sodium acetate pH 5.0, ± standard deviation of the fit.
From the text: as §1, §2, §3

Assay [3] concerns the target T3, human RNase 3 (RN3_Human) (Homo sapiens, UniProt P12724).
T3 construct: made in house; host or cells: Escherichia coli
T3 sequence (P12724 28-160): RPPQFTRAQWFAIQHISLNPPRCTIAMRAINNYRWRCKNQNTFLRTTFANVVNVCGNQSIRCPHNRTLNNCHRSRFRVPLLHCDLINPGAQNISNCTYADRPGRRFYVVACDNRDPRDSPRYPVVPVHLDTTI
Put plainly: NMR chemical shift titration, ligand binding to human RNase 3.
From the text: as §1
The equilibrium dissociation constant (Kd) was calculated by plotting weighted average chemical shift differences (Δδobs) as a function of ligand concentration and fitting the data using the following equation:
(1) Δδobs=Δδmax/2[P]t([P]t+[L]t/[P]t[P]t+Kd −([P]t+[L]t/[P]t[P]t+Kd)^2−4[L]t/[P]t[P]^2t)
The Kd was estimated by simultaneously fitting the data of all residues affected by ligand binding (Williamson, [2013]). We note that Δδmax is a fitted parameter and not an experimentally measured one. Uncertainties on these values are given by the standard deviations of the fits. Chemical shift perturbations (Δδobs) were calculated as the difference in the weighted average chemical shift of the ligand-bound (5′-AMP and 3′-UMP) and apo states, as shown below.
(2) Δδobs=(ΔδH)^2+(0.2ΔδN)^2/2

The target in assay [4] is T4, human RNase 2 (RN2_Human) (Homo sapiens, UniProt P10153).
T4 construct: made in house; host or cells: Escherichia coli
Put plainly: NMR chemical shift titration, ligand binding to human RNase 2.
From the text: as §1, §2, §3

The target in assay [5] is bovine RNase A (RNA_Bovine). Details: method as in Gagné et al. ([2012]). The following applies: ref Gagné et al. ([2012]); cited from earlier work.
[6] abbreviates: RN3_Human, 298 K, 15 mM sodium acetate pH 5.0, ± standard deviation of the fit, read-out: Kd.

Here are results for three molecules from PMC6005897, “Ligand-Induced Variations in Structural and Dynamical Properties Within an Enzyme Superfamily” (Frontiers in Molecular Biosciences, 2018).

Like-named read-outs stand apart in the source and are kept apart here.

T4 sequence (P10153 28-161): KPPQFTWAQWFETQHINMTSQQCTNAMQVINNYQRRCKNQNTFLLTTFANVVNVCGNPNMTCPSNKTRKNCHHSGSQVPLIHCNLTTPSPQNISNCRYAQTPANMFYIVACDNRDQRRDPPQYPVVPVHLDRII
T2 sequence (P03950 25-147): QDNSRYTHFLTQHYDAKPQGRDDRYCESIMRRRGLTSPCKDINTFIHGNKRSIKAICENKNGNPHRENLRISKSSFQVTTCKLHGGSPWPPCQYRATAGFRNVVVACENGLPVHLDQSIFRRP

By Kd is commonly meant the equilibrium constant for the complex coming apart. Regarding `O=c1ccn([C@@H]2O[C@H](CO)[C@@H](OP(=O)(O)O)[C@H]2O)c(=O)[nH]1` [3′-UMP], the Kd is 10300 µM in assay [1]; 1940 µM in assay [2]; 460 ± 100 µM in assay [3] (setting [6]); 456 ± 10.6 µM in assay [4]; 9.7 ± 0.9 µM in assay [5].

In the case of `Nc1ncnc2c1ncn2[C@@H]1O[C@H](COP(=O)(O)O)[C@@H](O)[C@H]1O` [5′-AMP], the Kd in assay [3] was 300 ± 45 µM; in assay [4] (RN2_Human, 298 K, 15 mM sodium acetate pH 5.0, ± standard deviation of the fit, read-out: Kd), 540 ± 31.4 µM; in assay [5], 124 ± 1 µM.

For dATATA, the figures for the Kd in assay [1] and in assay [3] (setting [6]) were 72.9 ± 9 µM and 302 ± 31 µM, respectively.
